Bounds are passed on as bounds.

The subject of the experiment is AR / CBP ternary complex. The experiment can be described thus: Ternary complex formation assay (sandwich ELISA, AR capture / CBP detection) in VCaP cell lysates. In kind it is cell-based. The note with it: 1.5 hours treatment, sandwich ELISA (AR capture, CBP or p300 detection). In a few lines:
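Anti-AR (AR 441)-coated plates capture AR from lysates of VCaP cells grown ≥3 days at 50K/well in 5% charcoal-stripped FBS, dosed with bifunctional for 1.5 h and lysed 30 min at 4 °C. Co-captured CBP/p300 is probed with rabbit mAb and HRP anti-rabbit, then QuantaRed fluorescence (570/585) is read at 0, 5 and 15 min.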
(In general: An ELISA detects its analyte on a solid surface through an enzyme-linked reagent.)
By EC50 is commonly meant the concentration giving half of the maximal effect. Low readings indicate a more potent agent, high ones a less potent agent. Regarding `CC(=O)N1CCc2c(c(N3CCCc4cc(-c5cnn(C)c5)c(C(F)F)cc43)nn2C2CN(CCN3CCN(c4ncc(C(=O)NC5C(C)(C)C(Oc6ccc(C#N)c(Cl)c6)C5(C)C)cn4)CC3)C2)C1` (stereo not drawn) [Compound 161, 2-[4-[2-[3-[5-acetyl-3-[7-(difluoromethyl)-6-(1-methylpyrazol-4-yl)-3,4-dihydro-2H-quinolin-1-yl]-6,7-dihydro-4H-pyrazolo[4,3-c]pyridin-1-yl]azetidin-1-yl]ethyl]piperazin-1-yl]-N-[3-(3-chloro-4-cyano-phenoxy)-2,2,4,4-tetramethyl-cyclobutyl]pyrimidine-5-carboxamide], the EC50 was 10 to 100 nM.

`CC(=O)N1CCc2c(c(N3CCCc4cc(-c5cnn(C)c5)c(C(F)F)cc43)nn2C2CCC3(CCCN(C4CN(c5ncc(C(=O)NC6C(C)(C)C(Oc7ccc(C#N)c(Cl)c7)C6(C)C)cn5)C4)C3)CC2)C1` (stereo not drawn) [Compound 414, 2-[3-[9-[5-acetyl-3-[7-(difluoromethyl)-6-(1-methylpyrazol-4-yl)-3,4-dihydro-2H-quinolin-1-yl]-6,7-dihydro-4H-pyrazolo[4,3-c]pyridin-1-yl]-2-azaspiro[5.5]undecan-2-yl]azetidin-1-yl]-N-[3-(3-chloro-4-cyano-phenoxy)-2,2,4,4-tetramethyl-cyclobutyl]pyrimidine-5-carboxamide] displayed an EC50 of less than 1 nM.

In turn, `COc1cc(OC2C(C)(C)C(NC(=O)c3ccc(OC4CCC(N5CCC(n6nc(N7CCCc8cc(-c9cnn(C)c9)c(C(F)F)cc87)c7c6CCN(C(C)=O)C7)CC5)CC4)cc3)C2(C)C)ccc1C#N` (stereo not drawn) [Compound 381, 4-[4-[4-[5-acetyl-3-[7-(difluoromethyl)-6-(1-methylpyrazol-4-yl)-3,4-dihydro-2H-quinolin-1-yl]-6,7-dihydro-4H-pyrazolo[4,3-c]pyridin-1-yl]-1-piperidyl]cyclohexoxy]-N-[3-(4-cyano-3-methoxy-phenoxy)-2,2,4,4-tetramethyl-cyclobutyl]benzamide] came in with a 50% effective concentration (EC50) of less than 1 nM.

Compound `CC(=O)N1CCc2c(c(N3CCCc4cc(-c5cnn(C)c5)c(C(F)F)cc43)nn2C2CCN(CC3C(C)CN(c4ncc(C(=O)NC5C(C)(C)C(Oc6ccc(C#N)c(C(F)(F)F)c6)C5(C)C)cn4)CC3C)CC2)C1` (stereo not drawn) [Compound 463, 2-[4-[[4-[5-acetyl-3-[7-(difluoromethyl)-6-(1-methylpyrazol-4-yl)-3,4-dihydro-2H-quinolin-1-yl]-6,7-dihydro-4H-pyrazolo[4,3-c]pyridin-1-yl]-1-piperidyl]methyl]-3,5-dimethyl-1-piperidyl]-N-[3-[4-cyano-3-(trifluoromethyl)phenoxy]-2,2,4,4-tetramethyl-cyclobutyl]pyrimidine-5-carboxamide] had a concentration for a half-maximal effect (EC50) of less than 1 nM.

The compound `COc1cc(OC2C(C)(C)C(NC(=O)c3ccc(N4CC5(CCC(N6CCC(n7nc(N8CCCc9cc(-c%10cn(C)cn%10)c(C(F)F)cc98)c8c7CCN(C(C)=O)C8)CC6)CC5)C4)cc3)C2(C)C)ccc1C#N` (stereo not drawn) [Compound 426, 4-[7-[4-[5-acetyl-3-[7-(difluoromethyl)-6-(1-methylimidazol-4-yl)-3,4-dihydro-2H-quinolin-1-yl]-6,7-dihydro-4H-pyrazolo[4,3-c]pyridin-1-yl]-1-piperidyl]-2-azaspiro[3.5]nonan-2-yl]-N-[3-(4-cyano-3-methoxy-phenoxy)-2,2,4,4-tetramethyl-cyclobutyl]benzamide] returned an EC50 of less than 1 nM.

Compound `CC(=O)N1CCc2c(c(N3CCCc4cc(-c5cnn(C)c5)c(C(F)F)cc43)nn2C2CCN(C(=O)C3CN(c4ncc(C(=O)NC5C(C)(C)C(Oc6ccc(C#N)c(Cl)c6)C5(C)C)cn4)C3)CC2)C1` (stereo not drawn) [Compound 118, 2-[3-[4-[5-acetyl-3-[7-(difluoromethyl)-6-(1-methylpyrazol-4-yl)-3,4-dihydro-2H-quinolin-1-yl]-6,7-dihydro-4H-pyrazolo[4,3-c]pyridin-1-yl]piperidine-1-carbonyl]azetidin-1-yl]-N-[3-(3-chloro-4-cyano-phenoxy)-2,2,4,4-tetramethyl-cyclobutyl]pyrimidine-5-carboxamide] showed an EC50 of more than 100 nM.

For the compound `CC(=O)N1CCc2c(c(Nc3ccc(-c4cnn(C)c4)cc3F)nn2C2CCN(CCC3CCN(c4ncc(C(=O)NC5C(C)(C)C(Oc6ccc(C#N)c(Cl)c6)C5(C)C)cn4)CC3)C2)C1` (stereo not drawn) [Compound 6, 2-[4-[2-[3-[5-acetyl-3-[2-fluoro-4-(1-methylpyrazol-4-yl)anilino]-6,7-dihydro-4H-pyrazolo[4,3-c]pyridin-1-yl]pyrrolidin-1-yl]ethyl]-1-piperidyl]-N-[3-(3-chloro-4-cyano-phenoxy)-2,2,4,4-tetramethyl-cyclobutyl]pyrimidine-5-carboxamide], the EC50 was more than 100 nM.

`CC(=O)N1CCc2c(c(N3CCCc4cc(-c5cnn(C)c5)c(C(F)F)cc43)nn2C2CN(C(=O)CC3CCN(c4ncc(C(=O)NC5C(C)(C)C(Oc6ccc(C#N)c(Cl)c6)C5(C)C)cn4)CC3)C2)C1` (stereo not drawn) [Compound 163, 2-[4-[2-[3-[5-acetyl-3-[7-(difluoromethyl)-6-(1-methylpyrazol-4-yl)-3,4-dihydro-2H-quinolin-1-yl]-6,7-dihydro-4H-pyrazolo[4,3-c]pyridin-1-yl]azetidin-1-yl]-2-oxo-ethyl]-1-piperidyl]-N-[3-(3-chloro-4-cyano-phenoxy)-2,2,4,4-tetramethyl-cyclobutyl]pyrimidine-5-carboxamide] yielded a concentration for a half-maximal effect (EC50) of less than 1 nM.

Consider `CC(=O)N1CCc2c(c(N3CCCc4cc(-c5cnn(C)c5)c(C(F)F)cc43)nn2C2CCN(C3CC4(CCN(c5ncc(C(=O)NC6C(C)(C)C(Oc7ccc(C#N)c(Cl)c7)C6(C)C)cn5)C4)C3)CC2)C1` (stereo not drawn) [Compound 346, 2-[2-[4-[5-acetyl-3-[7-(difluoromethyl)-6-(1-methylpyrazol-4-yl)-3,4-dihydro-2H-quinolin-1-yl]-6,7-dihydro-4H-pyrazolo[4,3-c]pyridin-1-yl]-1-piperidyl]-6-azaspiro [3.4]octan-6-yl]-N-[3-(3-chloro-4-cyano-phenoxy)-2,2,4,4-tetramethyl-cyclobutyl]pyrimidine-5-carboxamide], for which the EC50 is less than 1 nM.

Compound `CC(=O)N1CCc2c(c(N3CCCc4cc(-c5cnn(C)c5)c(C(F)F)cc43)nn2C2CCN(C(=O)N3CCN(c4ncc(C(=O)NC5C(C)(C)C(Oc6ccc(C#N)c(Cl)c6)C5(C)C)cn4)CC3)CC2)C1` (stereo not drawn) [Compound 112, 2-[4-[4-[5-acetyl-3-[7-(difluoromethyl)-6-(1-methylpyrazol-4-yl)-3,4-dihydro-2H-quinolin-1-yl]-6,7-dihydro-4H-pyrazolo[4,3-c]pyridin-1-yl]piperidine-1-carbonyl]piperazin-1-yl]-N-[3-(3-chloro-4-cyano-phenoxy)-2,2,4,4-tetramethyl-cyclobutyl]pyrimidine-5-carboxamide] gave an EC50 of less than 1 nM.

`CC(=O)N1CCc2c(c(N3CCCc4cc(-c5cnn(C)c5)c(C)cc43)nn2C2CN(CCC3CCN(c4ncc(C(=O)NC5C(C)(C)C(Oc6ccc(C#N)c(Cl)c6)C5(C)C)cn4)CC3)C2)C1` (stereo not drawn) [Compound 160, 2-[4-[2-[3-[5-acetyl-3-[7-methyl-6-(1-methylpyrazol-4-yl)-3,4-dihydro-2H-quinolin-1-yl]-6,7-dihydro-4H-pyrazolo[4,3-c]pyridin-1-yl]azetidin-1-yl]ethyl]-1-piperidyl]-N-[3-(3-chloro-4-cyano-phenoxy)-2,2,4,4-tetramethyl-cyclobutyl]pyrimidine-5-carboxamide]: the EC50 was more than 100 nM.

`COc1cc(OC2C(C)(C)C(NC(=O)c3ccc(N4CC(N5CC6(CCC(n7nc(N8CCCc9cc(-c%10cnn(C)c%10)c(C(F)F)cc98)c8c7CCN(C(C)=O)C8)CC6)C5)C4)cc3)C2(C)C)ccc1C#N` (stereo not drawn) [Compound 370, 4-[3-[7-[5-acetyl-3-[7-(difluoromethyl)-6-(1-methylpyrazol-4-yl)-3,4-dihydro-2H-quinolin-1-yl]-6,7-dihydro-4H-pyrazolo[4,3-c]pyridin-1-yl]-2-azaspiro[3.5]nonan-2-yl]azetidin-1-yl]-N-[3-(4-cyano-3-methoxy-phenoxy)-2,2,4,4-tetramethyl-cyclobutyl]benzamide]: the EC50 was less than 1 nM.

On to `CC(=O)N1CCc2c(c(-c3cccc4cc(-c5cnn(CC6CCN(c7ncc(C(=O)NC8C(C)(C)C(Oc9ccc(C#N)c(Cl)c9)C8(C)C)cn7)CC6)c5)ncc34)nn2C2CCOCC2)C1` (stereo not drawn) [Compound 137, 2-[4-[[4-[8-(5-acetyl-1-tetrahydropyran-4-yl-6,7-dihydro-4H-pyrazolo[4,3-c]pyridin-3-yl)-3-isoquinolyl]pyrazol-1-yl]methyl]-1-piperidyl]-N-[3-(3-chloro-4-cyano-phenoxy)-2,2,4,4-tetramethyl-cyclobutyl]pyrimidine-5-carboxamide], for which the 50% effective concentration (EC50) is less than 1 nM.

`COc1cc(OC2C(C)(C)C(NC(=O)c3ccc(N4CC5(CCC(N6CCC(n7nc(N8CCCc9cc(-c%10cnn(C)c%10)c(C(F)F)cc98)c8c7CCN(C(C)=O)C8)CC6)C5)C4)cc3)C2(C)C)ccc1C#N` (stereo not drawn) [Compound 345, 4-[6-[4-[5-acetyl-3-[7-(difluoromethyl)-6-(1-methylpyrazol-4-yl)-3,4-dihydro-2H-quinolin-1-yl]-6,7-dihydro-4H-pyrazolo[4,3-c]pyridin-1-yl]-1-piperidyl]-2-azaspiro[3.4]octan-2-yl]-N-[3-(4-cyano-3-methoxy-phenoxy)-2,2,4,4-tetramethyl-cyclobutyl]benzamide]: the concentration giving a half-maximal response (EC50) was less than 1 nM.

Compound `CC(=O)N1CCc2c(c(N3CCCc4cc(-c5cnn(C)c5)c(C(F)F)cc43)nn2C2CCN(C(=O)C3CCN(c4ccc(C(=O)NC5C(C)(C)C(Oc6ccc(C#N)c(Cl)c6)C5(C)C)cc4)CC3)CC2)C1` (stereo not drawn) [Compound 116, 4-[4-[4-[5-acetyl-3-[7-(difluoromethyl)-6-(1-methylpyrazol-4-yl)-3,4-dihydro-2H-quinolin-1-yl]-6,7-dihydro-4H-pyrazolo[4,3-c]pyridin-1-yl]piperidine-1-carbonyl]-1-piperidyl]-N-[3-(3-chloro-4-cyano-phenoxy)-2,2,4,4-tetramethyl-cyclobutyl]benzamide] came in with a concentration giving a half-maximal response (EC50) of more than 100 nM.

The record behind these values is patent US20250129070A1, “BIFUNCTIONAL ANDROGEN RECEPTOR COMPOUNDS” (priority 2023, published 2025).
